Laboratory results as given in BindingDB's records for doi:10.7270/Q2H70D5W (University of Pittsburgh, 2007).

target: Gag-Pol polyprotein (Human immunodeficiency virus type 1 group M subtype B (isolate HXB2), UniProt P04585); assay: concentration-response of HIV-1 RNase H blockers – biochemical, probe assessment, dose response (AID 652); settings: pH 8; 23 °C

| SMILES | IC50 [µM] |
| --- | --- |
| O=C(Nc1ccc2nc(-c3ccco3)c(-c3ccco3)nc2c1)N1CCCCCC1 | 0.953 |
| CCCCCC#CCC#CCC#CCC#CCCCC(=O)O | 0.794 |
| Cc1ccc2c(c1C)NC(C(=O)O)C1CC=CC21 (centres undefined) | 1.03 |
| CCCc1nc2ccccc2c(=O)n1N=Cc1ccc(O)c(O)c1 | 0.767 |
| N#Cc1cc(-c2ccccc2)nn1-c1ccccc1 | 0.876 |
| c1ccc(-c2ccc(C3=Nc4ncnn4C(c4ccco4)C3)cc2)cc1 (centres undefined) | 14.5 |
| O=C(CSc1nnc[nH]1)c1ccccc1 | 5.52 |
| Cc1cc(C)n2c(S)nnc2n1 | 8.1 |
| CCCCCn1c(SCCCC)nc2c1c(=O)[nH]c(=O)n2C | 2.48 |
| Cc1sc(-n2c(C)cc(C=Nn3cnnc3)c2C)c(C#N)c1C | 2.22 |
| COCCn1c(-c2ccc(-c3ccccc3Cl)o2)nc2c1c(=O)[nH]c(=O)n2CC(C)C | 4.55 |
| c1ccc2[nH]c(SN3CCOCC3)nc2c1 | 12.5 |
| CC(C)c1ccc2oc(-c3ccc(NC(=O)c4nnc[nH]4)cc3)nc2c1 | 5.64 |
| CN1CSC2=C(C#N)C(c3cccc(OCc4ccccc4)c3)CC(=O)N2C1 (centres undefined) | 10.6 |
| C=CCOc1ccc(CC2C(=O)N(C)C(=O)N(C)C2=O)cc1 [1,3-dimethyl-5-[(4-prop-2-enoxyphenyl)methyl]-1,3-diazinane-2,4,6-trione] | 2.61 |
| CCn1c(SCC(=O)c2ccc(O)c(O)c2)nnc1-c1ccccc1OC [1-(3,4-dihydroxyphenyl)-2-[[4-ethyl-5-(2-methoxyphenyl)-1,2,4-triazol-3-yl]sulfanyl]ethanone] | 2.36 |
| C=CCn1c(SCC(=O)c2ccc(O)c(O)c2)nnc1-c1ccccc1OC [1-(3,4-dihydroxyphenyl)-2-[[5-(2-methoxyphenyl)-4-prop-2-enyl-1,2,4-triazol-3-yl]sulfanyl]ethanone] | 2.57 |
| CCC1CCCCN1S(=O)(=O)c1ccc(S(=O)(=O)N2CCN(S(=O)(=O)CC)CC2)cc1 (centres undefined) [1-Ethanesulfonyl-4-[4-(2-ethyl-piperidine-1-sulfonyl)-benzenesulfonyl]-piperazine] | 12.3 |
| CC(C)c1nnc(NC(=O)c2c(O)n3c4c(cccc4c2=O)CCC3)s1 [1-Hydroxy-3-oxo-6,7-dihydro-3H,5H-pyrido[3,2,1-ij]quinoline-2-carboxylic acid (5-isopropyl-[1,3,4]thiadiazol-2-yl)-amide] | 14.9 |
| CCOC(=O)C1CCCN(C(=O)Cn2sc3nc(C)cc(C)c3c2=O)C1 (centres undefined) [1-[2-(3-keto-4,6-dimethyl-isothiazolo[5,4-b]pyridin-2-yl)acetyl]nipecotic acid ethyl ester] | 9.03 |
| c1ccc(Cc2nn3c(Cn4cnc5ccccc54)nnc3s2)cc1 [1-[(6-benzyl[1,2,4]triazolo[3,4-b][1,3,4]thiadiazol-3-yl)methyl]-1H-benzimidazole] | 2.2 |
| O=S(=O)(c1ccc(S(=O)(=O)N2CCN(C/C=C/c3ccccc3)CC2)cc1)N1CCCC1 [1-[(E)-3-phenylprop-2-enyl]-4-(4-pyrrolidin-1-ylsulfonylphenyl)sulfonyl-piperazine] | 12.2 |
| C=CCn1c(=O)c(C(=O)Nc2nnc(C)s2)c(O)c2ccccc21 [1-allyl-2-hydroxy-4-keto-N-(5-methyl-1,3,4-thiadiazol-2-yl)quinoline-3-carboxamide] | 16.8 |
| CCCCCn1c(=O)c(C(=O)NCc2ccncc2)c(O)c2ccccc21 [1-amyl-2-hydroxy-4-keto-N-(4-pyridylmethyl)quinoline-3-carboxamide] | 7.42 |
| c1ccc2c(c1)nnn2Cc1nnc2sc(-c3ccc4c(c3)OCCO4)nn12 [1-{[6-(2,3-dihydro-1,4-benzodioxin-6-yl)[1,2,4]triazolo[3,4-b][1,3,4]thiadiazol-3-yl]methyl}-1H-1,2,3-benzotriazole] | 1.69 |
| c1cncc(-c2nn3c(Cn4cnc5ccccc54)nnc3s2)c1 [1-{[6-(3-pyridinyl)[1,2,4]triazolo[3,4-b][1,3,4]thiadiazol-3-yl]methyl}-1H-benzimidazole] | 0.621 |
| O=C(Nc1ccc(N2CCOCC2)cc1)c1ccc2nc(-c3ccco3)c(-c3ccco3)nc2c1 [2,3-bis(2-furanyl)-N-[4-(4-morpholinyl)phenyl]-6-quinoxalinecarboxamide] | 22.6 |

| SMILES | IC50 [µM] |
| --- | --- |
| Cc1nc(C)c(C(=O)Nc2nc3c(C)cccc3s2)o1 [2,4-dimethyl-N-(4-methyl-1,3-benzothiazol-2-yl)-1,3-oxazole-5-carboxamide] | 1.49 |
| CCOc1cc(C2C(C#N)C(=N)SC(=N)C2C#N)ccc1OCCN1CCOCC1 (centres undefined) [2,6-bis(azanyl)-4-[3-ethoxy-4-(2-morpholin-4-ylethoxy)phenyl]-4H-thiopyran-3,5-dicarbonitrile] | 31.5 |
| N#CC1C(=N)SC(=N)C(C#N)C1c1ccnc2ccccc12 (centres undefined) [2,6-bis(azanyl)-4-quinolin-4-yl-4H-thiopyran-3,5-dicarbonitrile] | 13.7 |
| CCCc1nnc(NC(=O)CN2C(=O)c3ccccc3S2(=O)=O)s1 [2-(1,1-dioxido-3-oxo-1,2-benzisothiazol-2(3H)-yl)-N-(5-propyl-1,3,4-thiadiazol-2-yl)acetamide] | 3.23 |
| O=C(NCc1ccco1)c1cccnc1-c1nc2ccccc2s1 [2-(1,3-benzothiazol-2-yl)-N-(2-furanylmethyl)-3-pyridinecarboxamide] | 3.26 |
| Cc1nn2c(-c3cccc(NC(=O)CSc4nc5ccccc5o4)c3)nnc2c2ccccc12 [2-(1,3-benzoxazol-2-ylsulfanyl)-N-[3-(6-methyl-[1,2,4]triazolo[3,4-a]phthalazin-3-yl)phenyl]acetamide] | 3.71 |
| CCOc1ccc(-n2c(=O)c3c4c(sc3n(CC(=O)NCc3ccco3)c2=O)CCC4)cc1 [2-(1,3-diketo-2-p-phenetyl-7,8-dihydro-6H-cyclopenta[2,3]thieno[2,4-b]pyrimidin-4-yl)-N-(2-furfuryl)acetamide] | 22.4 |
| O=C1CC(c2ccccc2)Cc2nc(N3CCc4ccccc43)ncc21 (centres undefined) [2-(2,3-dihydroindol-1-yl)-7-phenyl-7,8-dihydro-6H-quinazolin-5-one] | 5.87 |
| Cc1cccc(OCC(=O)Nc2cccc(-c3nnc(-c4ccccc4)o3)c2)c1C [2-(2,3-dimethylphenoxy)-N-[3-(5-phenyl-1,3,4-oxadiazol-2-yl)phenyl]acetamide] | 3.92 |
| O=c1c(O)c(-c2ccc(O)cc2O)oc2cc(O)cc(O)c12 [2-(2,4-dihydroxyphenyl)-3,5,7-trihydroxychromen-4-one] | 2.11 |
| Cc1cc(NC(=O)CSc2nc(C3CC3)nc3sc4c(c23)CCC(C)C4)no1 (centres undefined) [2-(2-Cyclopropyl-7-methyl-5,6,7,8-tetrahydro-benzo[4,5]thieno[2,3-d]pyrimidin-4-ylsulfanyl)-N-(5-methyl-isoxazol-3-yl)-acetamide] | 5.41 |
| O=C(Cn1c(=O)oc2cc(S(=O)(=O)N3CCCC3)ccc21)NC1CCCc2ccccc21 (centres undefined) [2-(2-keto-6-pyrrolidinosulfonyl-1,3-benzoxazol-3-yl)-N-tetralin-1-yl-acetamide] | 19.8 |
| COCCSc1ccccc1C(=O)Nc1cc(C)on1 [2-(2-methoxyethylsulfanyl)-N-(5-methyl-1,2-oxazol-3-yl)benzamide] | 10.8 |
| O=c1c2ccccc2sn1-c1cc(S(=O)(=O)N2CCOCC2)ccc1N1CCOCC1 [2-(2-morpholin-4-yl-5-morpholin-4-ylsulfonyl-phenyl)-1,2-benzothiazol-3-one] | 0.579 |
| Cc1cc(C)cc(OCC(=O)Nc2nonc2NC(=O)COc2cc(C)cc(C)c2)c1 [2-(3,5-dimethylphenoxy)-N-[4-[2-(3,5-dimethylphenoxy)ethanoylamino]-1,2,5-oxadiazol-3-yl]ethanamide] | 1.89 |
| COC(=O)c1sc(N2C(=O)c3oc4ccccc4c(=O)c3C2c2cccs2)nc1C (centres undefined) [2-(3,9-dioxo-1-thiophen-2-yl-1H-[1]benzopyrano[2,3-c]pyrrol-2-yl)-4-methyl-5-thiazolecarboxylic acid methyl ester] | 5.25 |
| Cc1cccc(NC(=O)Cn2c(C)c(C#N)c3ccccc32)c1C [2-(3-Cyano-2-methyl-indol-1-yl)-N-(2,3-dimethyl-phenyl)-acetamide] | 29 |
| Cc1cc(C)c2c(=O)n(CC(=O)NCCCN3CCOCC3)sc2n1 [2-(3-keto-4,6-dimethyl-isothiazolo[5,4-b]pyridin-2-yl)-N-(3-morpholinopropyl)acetamide] | 9.4 |
| O=C(COc1ccc(Br)cc1)Nc1ccc(-c2nnc(-c3ccco3)o2)cc1 [2-(4-bromanylphenoxy)-N-[4-[5-(furan-2-yl)-1,3,4-oxadiazol-2-yl]phenyl]ethanamide] | 6.33 |
| COc1ccc(CC(=O)Nc2ccc(-c3noc(-c4cccc(OC)c4)n3)cc2)cc1 [2-(4-methoxyphenyl)-N-[4-[5-(3-methoxyphenyl)-1,2,4-oxadiazol-3-yl]phenyl]acetamide] | 3.07 |
| Cc1ccnc(-n2sc3ccccc3c2=O)n1 [2-(4-methyl-2-pyrimidinyl)-1,2-benzothiazol-3-one] | 1.17 |
| Cc1ccc(-n2sc3ccccc3c2=O)cc1S(=O)(=O)N1CCCCC1 [2-(4-methyl-3-piperidin-1-ylsulfonyl-phenyl)-1,2-benzothiazol-3-one] | 0.164 |
| Cc1sc2nc(SCC(=O)NCc3ccco3)n(CCc3ccccc3)c(=O)c2c1C [2-(5,6-Dimethyl-4-oxo-3-phenethyl-3,4-dihydro-thieno[2,3-d]pyrimidin-2-ylsulfanyl)-N-furan-2-ylmethyl-acetamide] | 3.86 |
| C=CCn1c(SCC(=O)NC(=O)NCc2ccco2)nc2sc(C)c(C)c2c1=O [2-(5,6-dimethyl-4-oxidanylidene-3-prop-2-enyl-thieno[2,3-d]pyrimidin-2-yl)sulfanyl-N-(furan-2-ylmethylcarbamoyl)ethanamide] | 19 |
| O=C(CSc1nc2ccccc2c2nc3ccccc3n12)NCc1ccco1 [2-(6-benzimidazolo[1,2-c]quinazolinylthio)-N-(2-furanylmethyl)acetamide] | 8.73 |
| CCOC(=O)C(C(C)=O)c1c(Br)c(O)c(O)c2c(C(=O)c3ccc(C)cc3)coc12 (centres undefined) [2-(6-bromo-4,5-dihydroxy-3-p-toluoyl-benzofuran-7-yl)-3-keto-butyric acid ethyl ester] | 0.421 |
| CC1CCc2c(sc(NC(=O)c3ccc(Cn4cc(Br)cn4)o3)c2C(N)=O)C1 (centres undefined) [2-({5-[(4-bromo-1H-pyrazol-1-yl)methyl]-2-furoyl}amino)-6-methyl-4,5,6,7-tetrahydro-1-benzothiophene-3-carboxamide] | 3.19 |
